A short description of the data set: Safety of NOSH in mice. In kind it is in vivo. Here is the method:
FIG. 1. NOSH (ND-One short open reading frames (sORF) in Humans) is safe in mice. NOSH has a sequence of […] (SEQ ID NO:215).
NOSH was safe in mice. Further, NOSH increased autophagy. The level of autophagy-related protein microtubule-associated protein 1 light chain 3 (LC3) was increased in PC3 cells treated with 5 μM NOSH for 6 h. FIG. 2.

Our source for the safety in mice values is US12577281B2, “Mitochondrial-derived peptides and analogs thereof for use as a therapy for age-related diseases including cancer” (University of Southern California, priority 2020, dated 2026).

Where a SMILES comes first, the peptide text is derived from it.

In the case of `CC[C@H](C)[C@H](NC(=O)[C@H](CC(C)C)NC(=O)[C@@H](NC(=O)[C@H](CC(C)C)NC(=O)[C@H](CCSC)NC(=O)[C@H](CC(C)C)NC(=O)[C@H](CO)NC(=O)[C@H](CC(C)C)NC(=O)[C@H](CO)NC(=O)[C@H](CCCNC(=N)N)NC(=O)CNC(=O)[C@H](CO)NC(=O)[C@H](CCCNC(=N)N)NC(=O)[C@H](CCCNC(=N)N)NC(=O)[C@@H](NC(=O)[C@H](C)NC(=O)[C@H](CC(C)C)NC(=O)[C@H](CC(C)C)NC(=O)[C@H](CC(C)C)NC(=O)CNC(=O)[C@H](Cc1ccccc1)NC(=O)[C@H](CC(C)C)NC(=O)[C@H](CCCNC(=N)N)NC(=O)[C@@H](N)CCSC)C(C)C)[C@@H](C)O)C(=O)N[C@@H](CCCNC(=N)N)C(=O)NCC(=O)N[C@@H](CC(C)C)C(=O)N[C@@H](CO)C(=O)N[C@@H](CCCCN)C(=O)N[C@@H](CCCNC(=N)N)C(=O)N[C@@H](CC(C)C)C(=O)NCC(=O)O` [NOSH] (H-MRLFGLLLAVRRSGRSLSLMLTLIRGLSKRLG-OH), the safety in mice entry was “safe”.
